Test systems include A549; CAKI-1; COLO 205; HCC 2998; HCT-116; HCT-15; HOP-62; IGROV-1; K562; MDA-N; OVCAR-4; OVCAR-5; PC-3; RPMI-8226; RXF 393; SF-268; SK-MEL-28; SK-MEL-5; SW-620; LOX IMVI.
What all share (test): NCI tumour cell line growth inhibition, 48 h

The values below come from ChEMBL document CHEMBL1201862, “PubChem BioAssay data set” (2004).

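Values below derive from 48-hour exposures of cells grown in 96-well plates, with endpoints linearly interpolated between the two concentrations bracketing the appropriate inhibition level. The concentration for 50% growth inhibition is given as GI50.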 Active and inactive are the calls of the source. No stated cut-off is given here; in the data, active = GI50 up to about 1.1 µM and inactive = higher.

In the case of `CC1=CSC(O)(c2ccc(Cl)cc2)c2noc(=O)n21` (stereo not given), the GI50 in the test on A549 is > 100 µM (inactive); in the test with CAKI-1, > 100 µM (inactive); in the test with COLO 205, > 100 µM (inactive); in the test on HCC 2998, 14.4 µM (inactive); in the test on HCT-116 it was 53.5 µM (inactive); in the test on HCT-15 it was 72.9 µM. Further, the GI50 is > 100 µM (inactive) in the test on HOP-62; > 100 µM (inactive) with IGROV-1; 61.1 µM (inactive) in the test on K562; 88.3 µM (inactive) in the test on MDA-N; > 100 µM (inactive) in the test on OVCAR-4; > 100 µM (inactive) with OVCAR-5. The GI50 in the test with PC-3 is 71.1 µM (inactive); with RPMI-8226 it was 57.7 µM (inactive); in the test on RXF 393 it was 71.6 µM (inactive); with SF-268, > 100 µM (inactive); in the test on SK-MEL-28, 29.2 µM (inactive); in the test with SK-MEL-5, 59.6 µM (inactive). Further, in the test on SW-620, the GI50 was > 100 µM (inactive).
On to `COc1cc(OCc2ccc3nc(-c4ccccc4)c(N)nc3c2)cc(OC)c1OC`, for which the GI50 in the test with A549 was 20.6 µM (inactive); with CAKI-1, 23.4 µM (inactive); in the test with COLO 205, 16.5 µM (inactive); in the test with HCC 2998 it was 35 µM (inactive); in the test with HCT-116, 3.61 µM (inactive); in the test on HCT-15, 17.3 µM. For the same molecule, the GI50 with IGROV-1 is 22.2 µM (inactive); in the test with K562, 15.5 µM (inactive); in the test on LOX IMVI, 13.7 µM (inactive); with MDA-N it was 15.5 µM (inactive); in the test on OVCAR-4 it was 13.8 µM (inactive); with OVCAR-5, 17.6 µM (inactive). For the same molecule, the GI50 in the test on PC-3 was 17.8 µM (inactive); in the test on RPMI-8226, 8.79 µM (inactive); in the test on RXF 393 it was 23.1 µM (inactive); with SF-268, 34.8 µM (inactive); with SK-MEL-28 it was 19.3 µM (inactive); in the test with SK-MEL-5 it was 11.3 µM (inactive). In the test with SW-620, the GI50 is 28.2 µM (inactive).
In the case of `O=C(/C=C/c1ccc(OCC(=O)N2CCN(c3ccccc3)CC2)cc1)c1ccc(Cl)cc1`, the GI50 is 38.7 µM (inactive) with A549; 78.5 µM (inactive) in the test on CAKI-1; > 100 µM (inactive) in the test on COLO 205; > 100 µM (inactive) with HCC 2998; 54.5 µM (inactive) in the test with HCT-116; greater than 100 µM with HCT-15. Besides, the GI50 is 21.7 µM (inactive) in the test with HOP-62; 38.6 µM (inactive) in the test on IGROV-1; > 100 µM (inactive) in the test with K562; > 100 µM (inactive) in the test with LOX IMVI; > 100 µM (inactive) in the test with MDA-N; 32.6 µM (inactive) in the test on OVCAR-4. Also, the GI50 was > 100 µM (inactive) with OVCAR-5; > 91.8 µM (inactive) in the test on PC-3; > 100 µM (inactive) with RPMI-8226; 21.9 µM (inactive) in the test with RXF 393; 26.2 µM (inactive) in the test with SF-268; > 100 µM (inactive) with SK-MEL-28. Also, the GI50 is 54.2 µM (inactive) in the test with SK-MEL-5 and > 100 µM (inactive) in the test with SW-620.
For `CN(CCN)[C@H](CSSC[C@@H](c1ccccc1O)N(C)CCN)c1ccccc1O`, the GI50 in the test on A549 was 7.24 µM (inactive); in the test with CAKI-1, 13 µM (inactive); with COLO 205, 24.8 µM (inactive); with HCC 2998 it was 12 µM (inactive); with HCT-116, 4.12 µM (inactive); in the test with HCT-15 it was 5.33 µM. Besides, the GI50 was 12.1 µM (inactive) in the test on HOP-62; 7.18 µM (inactive) in the test on K562; 4.27 µM (inactive) in the test on LOX IMVI; 11.9 µM (inactive) in the test on MDA-N; 14.1 µM (inactive) in the test on OVCAR-4; 13.9 µM (inactive) in the test on OVCAR-5. Besides, the GI50 is 11.7 µM (inactive) in the test on PC-3; 12.9 µM (inactive) in the test on RPMI-8226; 18.9 µM (inactive) in the test on RXF 393; 12.4 µM (inactive) with SF-268; 14.3 µM (inactive) with SK-MEL-28; 12 µM (inactive) in the test on SK-MEL-5. The GI50 in the test with SW-620 was 15.7 µM (inactive).
Consider `COc1cccc(CC(=O)N2CCN(CCCc3ccccc3)CC2)c1`, for which the GI50 in the test with A549 is 66.5 µM (inactive); in the test with CAKI-1, 80.4 µM (inactive); with COLO 205, 76.7 µM (inactive); with HCC 2998, 98.4 µM (inactive); with HCT-116 it was 65.6 µM (inactive); in the test with HCT-15, 45.9 µM. Also, the GI50 was > 100 µM (inactive) with HOP-62; > 100 µM (inactive) with IGROV-1; 33.9 µM (inactive) in the test on K562; > 100 µM (inactive) with LOX IMVI; 90.8 µM (inactive) in the test on MDA-N; 34.4 µM (inactive) with OVCAR-4. Further, the GI50 with OVCAR-5 was > 100 µM (inactive); in the test on PC-3, > 100 µM (inactive); in the test with RPMI-8226 it was 43.6 µM (inactive); with SF-268, > 100 µM (inactive); in the test with SK-MEL-28, > 100 µM (inactive); in the test with SK-MEL-5 it was 23.2 µM (inactive). Moreover, in the test with SW-620, the GI50 was > 100 µM (inactive).
`CN(C)c1ccc(/N=N\c2cccc3ncccc23)cc1`: the GI50 is 63.7 µM (inactive) in the test with A549; > 93.8 µM (inactive) with CAKI-1; 64 µM (inactive) in the test on COLO 205; 0.302 µM (active) in the test with HCC 2998; 52.7 µM (inactive) in the test with HCT-116; 51.9 µM with HCT-15. Besides, the GI50 in the test on HOP-62 was 93.5 µM (inactive); with IGROV-1, < 0.0159 µM (active); in the test with K562 it was 35.4 µM (inactive); in the test with LOX IMVI, 53.2 µM (inactive); in the test on MDA-N, 42 µM (inactive); with OVCAR-4, > 100 µM (inactive). Moreover, the GI50 in the test with PC-3 is 42.6 µM (inactive); with RPMI-8226, 18.1 µM (inactive); in the test with RXF 393, > 100 µM (inactive); with SF-268, > 94 µM (inactive); in the test on SK-MEL-28, > 100 µM (inactive); in the test on SK-MEL-5, 20.4 µM (inactive). The GI50 in the test with SW-620 was 62.2 µM (inactive).
For the molecule `COc1cc2c3c(n(Cc4ccccc4)c(=O)c2cc1OC)-c1ccccc1C3=O`, the GI50 is > 100 µM (inactive) in the test on A549; 92.9 µM (inactive) in the test on CAKI-1; > 100 µM (inactive) in the test with COLO 205; > 100 µM (inactive) in the test with HCC 2998; > 100 µM (inactive) in the test on HCT-116; greater than 100 µM in the test on HCT-15. In addition, the GI50 in the test on HOP-62, in the test on IGROV-1, with K562, in the test on LOX IMVI, in the test with MDA-N and in the test with OVCAR-4 was > 100 µM (inactive) each time. Also, the GI50 is > 100 µM (inactive) in the test on OVCAR-5; > 100 µM (inactive) with PC-3; > 100 µM (inactive) in the test with RPMI-8226; > 100 µM (inactive) in the test on RXF 393; 82.2 µM (inactive) in the test on SF-268; > 100 µM (inactive) in the test with SK-MEL-28. The GI50 in the test with SK-MEL-5 and in the test on SW-620 was > 100 µM (inactive) each time.
Regarding `COc1ccc(C2=Cc3nc2c(-c2ccccc2)c2ccc([nH]2)c(-c2ccccc2)c2nc(c(-c4ccccc4)c4ccc([nH]4)c3-c3ccccc3)C=C2)cc1`, the GI50 was > 100 µM (inactive) with A549; > 100 µM (inactive) with CAKI-1; > 100 µM (inactive) in the test with COLO 205; > 100 µM (inactive) in the test on HCC 2998; > 100 µM (inactive) in the test on HCT-116; greater than 100 µM in the test with HCT-15. Moreover, the GI50 with HOP-62, in the test with IGROV-1, in the test on K562, in the test on LOX IMVI, in the test on MDA-N and in the test with OVCAR-4 was > 100 µM (inactive) in each case. In addition, the GI50 in the test with OVCAR-5 is > 100 µM (inactive); with PC-3, > 100 µM (inactive); in the test with RXF 393, > 100 µM (inactive); with SF-268, 51.4 µM (inactive); in the test with SK-MEL-28, > 100 µM (inactive); with SK-MEL-5 it was > 100 µM (inactive). Also, in the test on SW-620, the GI50 was > 100 µM (inactive).
Turning to `Cn1c([C@H](C#N)C(=O)c2cc(O)ccc2[N+](=O)[O-])nc2ccccc21`, the GI50 in the test on A549 was > 100 µM (inactive); with CAKI-1, > 100 µM (inactive); in the test on COLO 205, > 100 µM (inactive); with HCC 2998, > 100 µM (inactive); in the test on HCT-116 it was > 100 µM (inactive); in the test on HCT-15, greater than 100 µM. Besides, the GI50 in the test with HOP-62, with IGROV-1, in the test with LOX IMVI, in the test on MDA-N, with OVCAR-4 and in the test on OVCAR-5 was > 100 µM (inactive) each time. Besides, the GI50 in the test with PC-3, in the test on RPMI-8226, in the test on SF-268, in the test on SK-MEL-28 and in the test on SK-MEL-5 was > 100 µM (inactive) throughout.
In the case of `CC1(C)[C@@H](Cn2cnc3c(Cl)nc(N)nc32)CC[C@@]1(C)CO`, the GI50 was > 100 µM (inactive) in the test on A549; 28.2 µM (inactive) with CAKI-1; 51.5 µM (inactive) in the test with COLO 205; 22.5 µM (inactive) with HCC 2998; 34.3 µM (inactive) in the test with HCT-116; 35.9 µM in the test with HCT-15. Besides, the GI50 with HOP-62 was > 100 µM (inactive); with K562, > 100 µM (inactive); with LOX IMVI, 27.9 µM (inactive); in the test with MDA-N, 32.4 µM (inactive); in the test with OVCAR-4 it was > 100 µM (inactive); with OVCAR-5, > 100 µM (inactive). Besides, the GI50 in the test on PC-3 is 96.6 µM (inactive); in the test with RPMI-8226, 24.2 µM (inactive); in the test on RXF 393 it was 65.8 µM (inactive); with SF-268, 20.8 µM (inactive); in the test with SK-MEL-28, 43.5 µM (inactive); in the test with SK-MEL-5 it was 18.7 µM (inactive). Also, the GI50 with SW-620 was 42.4 µM (inactive).
